Assay results reported in publication PMC10072326, “Promising anticancer agents based on 8-hydroxyquinoline hydrazone copper(II) complexes” (Frontiers in Chemistry, 2023).

How the values were obtained:
[1] = tested on: A-375 cells; assay: γH2AX staining for DNA double-strand breaks; assay type: cell-based
Experimental: Indeed, we examined whether DNA nicks induced by the complexes on pure plasmid DNA would reflect in cell culture as increased DNA break formation. To test this, A-375 cells were stained using γH2AX, which is a common marker for DSBs (Figure 7B). […] For complex 1 the opposite effect was observed and despite its lower ability to induce ROS formation, the DSB were the highest among the group.
(§1) 5 × 10^4 number of A-375 and A-549 cells were seeded on 12-well plates, and the next day cells were treated with either copper complexes (calculated IC70 values) or cisplatin (15 μM). Following 48 h of treatment, cells were trypsinized, centrifuged and resuspended in PBS solution supplemented with 1% fetal bovine serum (FBS) (10^6 cells/mL).
The Muse ɣH2A.X Activation Dual Detection Kit (Luminex, MCH200101) protocols were followed with minor changes. 1 × 10^5 cells were mixed with ice-cold 1X Fixation Buffer at the same volume for 5 min. Cells were centrifuged (600 g, 5 min), and the pellet was suspended with 100 μL of ice-cold 1X Permeabilization Buffer (10 min, on ice), and centrifuged again. The cell pellet was resuspended with 50 μL of antibody mixture of (20X) Anti-phospho-Histone H2A.X (Ser139), Alexa Fluor 555 and (20X) Anti-H2A.X, PECy5 antibodies. Following 30 min of antibody staining, cells were centrifuged and resuspended with 1X Assay Buffer. DNA breaks were analysed with Muse Cell Analyzer (Merck Millipore).

[2] = tested on: S. aureus MRSA 272123; assay: MIC determination; assay type: cell-based, Staphylococcus aureus; details: 18 h
[3] = tested on: A-375 cells; assay: Cytotoxicity with ROS scavenger NAC (SRB); assay type: cell-based; details: 10 mM NAC pre-treatment 2 h, co-treatment 72 h
Description: (§2) Additionally, to assess whether the ROS induction contributed to the cytotoxicity triggered by these complexes, we used a ROS scavenger, N-acetyl-cysteine (NAC), in combination with 1, 3, 5 or 8. […] Indeed, it is also possible that the cytotoxicity induced by 5 is not by ROS, despite the induction observed in Figure 7A.
(§3) Figure S27- Protective mechanism of NAC against Cu(II) complexes. Addition of NAC can protect cells from the cytotoxic effects of the Cu(II) complexes A-375 (A) and A-549 (B) cells were pre-treated with 10 mM of ROS scavenger N-acetylcysteine (NAC) for 2 h, then co-treated with freshly prepared Cu(II) complexes (1, 3, 5 and 8) for 72 h. Cell viability was measured via SRB assay (2 biological replicates, each done in duplicate). The error bars represent standard error of the mean. Student t-test was used for statistical analysis, *p<0.05, **p<0.01

[4] = tested on: A-549 cells; assay: Cytotoxicity with ROS scavenger NAC (SRB); assay type: cell-based; details: 10 mM NAC pre-treatment 2 h, co-treatment 72 h
Description: as §2, §3

[5] = tested on: A-375 cells; assay: ROS activation via dihydroethidium staining, flow cytometry; assay type: cell-based; details: 48 h
Description: (§4) Since reactive oxygen species appeared to be involved in the nicking activity of the complexes (Supplementary Figure S24), we investigated whether there was an increase in ROS formation in cells upon drug treatment. Dihydroethidium (DHE) is a reduced form of ethidium, after oxidation with superoxide (ROS), it is converted into 2-hydroxy ethidium, which is a chemical that emits red fluorescence and intercalates DNA. […] Similar results were obtained using A-549 cells, but with much milder induction of ROS except for 8, which remained high (Supplementary Figure S26).
as §1
(§5) Oxidative stress levels were assessed by Muse Oxidative Stress Kit (Luminex, MCH100111) using the same protocol as previously described (21).

[6] = tested on: A-375 cells; assay: Apoptosis by Annexin V/7-AAD and Caspase 3/7 flow cytometry; assay type: cell-based; details: 48 h, Annexin-V and caspase 3/7
Experimental: To determine the mode of cell death, A-375 cells were incubated with the Cu complexes and cisplatin for 48 h and, induction of apoptosis was evaluated using both Annexin-V staining and activation of caspase 3/7 in response to drug treatment. While Annexin-V staining relies on the loss of plasma membrane asymmetry, caspases 3 and 7 are critical proteases, which are responsible for the cleavage of many cellular proteins. […] Similar results were obtained in A-549 cells (Supplementary Figure S28).
as §1
Annexin V & Dead Cell Kit (Luminex, MCH100105) protocols were followed for Annexin V activation. Briefly, 1 × 10^5 cells were stained with Annexin V and 7-AAD solution in a 1:1 ratio and incubated at room temperature for 20 min. The apoptotic cell population was evaluated with Muse Cell Analyzer (Merck Millipore).
Caspase-3/7 Kit (Luminex, MCH100108) protocols were followed for Caspase 3/7 staining. 2 × 10^5 cells were stained with 5 μL of Caspase 3/7 antibody (1:8 dilution in PBS) and incubated at room temperature for 30 min. Then, the cells were stained with 100 μL of 7-AAD antibody mixture (1:75 dilution with 1 × Assay Buffer) for 5 min. Caspase 3/7 and 7-AAD positivity were assessed with Muse Cell Analyzer (Merck Millipore).

[7] = tested on: A-549 cells; assay: ROS activation via dihydroethidium staining, flow cytometry; assay type: cell-based
Description: as §4, §1, §5

Structure (SMILES) | DSB induction (γH2AX), in words [1] | MIC [2] [µM] | effect of NAC on cytotoxicity [3] | effect of NAC on cytotoxicity [4] | ROS positivity [5] [%] | induction of apoptosis, in words [6] | DNA breaks (γH2AX) ([1]; 48 h) [%] | ROS induction, in words [7]
CC(=O)[O-].O=C(NN=Cc1ccc2cccc([O-])c2n1)c1ccccc1.[Cu+2] [Complex 1, [Cu(HL^1)(AcO)]] | highest levels of DSB induction | 50 | significantly reduced | significantly reduced | – | – | – | –
[Cu+2].[O-]C(=NN=Cc1ccc2cccc([O-])c2n1)c1ccc(F)cc1 [Complex 3, [Cu(L^3)]3] | – | – | significantly reduced | significantly reduced | 60 | performed well | – | –
COc1ccc(C([O-])=NN=Cc2ccc3cccc([O-])c3n2)cc1.[Cu+2] [Complex 5, [Cu(L^5)]3] | highest levels of DSB induction | – | – | – | ~80 | triggered apoptosis only mildly | ~80 | milder ROS induction
